Measured values taken from ChEMBL document CHEMBL1150888, “Dragmacidins: new protein phosphatase inhibitors from a southern australian deep-water marine sponge, spongosorites sp” (1998).
In brackets after ≈: the same amount, converted by molar mass. Activity calls are given as the source filed them. No cut-off for these calls is given here.

Columns and labels:
Escherichia coli = assay: Antibacterial activity against Escherichia coli; assay type: functional
[1] = Inhibition of PP1
Candida albicans = assay: Antifungal activity against Candida albicans; assay type: functional
[2] = Inhibition of PP2A

| MIC (Escherichia coli) | Activity [1] | MIC (Candida albicans) | Activity [2] | SMILES |
| --- | --- | --- | --- | --- |
| 16 mg/L (≈ 30.1 µM) | Active | 20 mg/L (≈ 37.6 µM) |  | CC(C1=CNC(N)N1)c1ccc(O)c2[nH]cc(-c3cnc(-c4c[nH]c5cc(Br)ccc45)c(=O)[nH]3)c12 (configuration not stated) [DRAGMACIDIN D] |
| 22 mg/L (≈ 41.5 µM) | Active | 36 mg/L (≈ 67.9 µM) | Active | C[C@@H]1c2ccc(O)c3[nH]cc(c23)-c2[nH]c(=O)c(-c3c[nH]c4cc(Br)ccc34)nc2[C@@]12CNC(N)=N2 [DRAGMACIDIN E] |
